This is an account of results in PubChem BioAssay (NCI).

Some test systems named below: LXFL 529 NSCLC; P388 leukemia; P388/ADR leukemia; SN12K1 renal; XF 498 CNS; BT-549 breast; HS 578T breast; MDA-MB-231 breast; MDA-N; T-47D breast.
Test in all cases: NCI tumour cell line growth inhibition, 48 h

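Interpolation was linear, between the two tested concentrations surrounding the appropriate level; five concentrations were tested over 48 hours in 96-well plates. TGI marks complete inhibition of growth.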

For the compound `CN1Cc2ccccc2C2(COc3ccccc3C2=O)C1` (centres undefined), the TGI in the test on LXFL 529 NSCLC was greater than 100 µM.
In the case of `N/C(=N\N=C/c1c(O)cc(O)cc1O)NO`, the TGI with P388 leukemia, in the test with P388/ADR leukemia and with SN12K1 renal was greater than 100 µM each time.
As to `Cc1ccc(N2Cc3c(ccc4ccccc34)OP2(=S)N2CCCC2)cc1` (centres undefined), the TGI in the test on P388 leukemia was 47.9 µM; in the test with P388/ADR leukemia, greater than 100 µM; in the test on SN12K1 renal, greater than 100 µM; in the test with XF 498 CNS, greater than 100 µM.
As to `Cc1cc(C)c(S(=O)(=O)N(CCCCCN)OCCCN)c(C)c1`, the TGI in the test on BT-549 breast stood at 32.4 µM; with HS 578T breast, 40 µM; with MDA-MB-231 breast, 49 µM; in the test with MDA-N, 31.4 µM; in the test on T-47D breast, 37.7 µM.
Consider `COC1CCC(CO)OO1` (centres undefined), for which the TGI in the test on LXFL 529 NSCLC is greater than 100 µM.
On to `CC(=O)c1c(-c2ccco2)c(C#N)c(=S)n(C2OC(CO)C(O)C(O)C2O)c1C` (centres undefined), for which the TGI in the test with BT-549 breast, in the test on HS 578T breast, in the test with MDA-MB-231 breast, in the test with MDA-N and in the test with T-47D breast was greater than 100 µM each time.
